This passage reports IC50 results from PubChem BioAssay AID2082 (Sanford-Burnham Center for Chemical Genomics, 2009).

SMILES strings stand for the structures.

Chain of Tyrosine-protein phosphatase non-receptor type 7 (Homo sapiens) (P35236 whole entry, looked up): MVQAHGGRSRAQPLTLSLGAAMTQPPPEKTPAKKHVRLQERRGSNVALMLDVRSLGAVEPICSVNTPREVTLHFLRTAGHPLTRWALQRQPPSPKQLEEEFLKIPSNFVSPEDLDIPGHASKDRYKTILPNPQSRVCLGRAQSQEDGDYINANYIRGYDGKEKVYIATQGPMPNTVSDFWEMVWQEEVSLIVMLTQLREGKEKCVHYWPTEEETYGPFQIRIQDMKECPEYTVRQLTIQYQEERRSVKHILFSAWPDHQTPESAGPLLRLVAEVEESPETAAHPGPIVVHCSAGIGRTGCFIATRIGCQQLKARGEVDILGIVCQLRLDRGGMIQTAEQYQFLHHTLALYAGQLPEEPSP

The test concerns the target Tyrosine-protein phosphatase non-receptor type 7 (Homo sapiens) (UniProt P35236). The experiment in a line: off-target HePTP activity blockade – biochemical, DiFMUP fluorescence, selectivity assay for VHR1 inhibitor project, SAR follow-up (AID 2082). The settings on record: recombinant HePTP.
Regarding `O=C1/C(=C/c2cn(-c3ccccc3)nc2-c2ccc(OCc3ccccc3F)cc2)SC(=S)N1CCS(=O)(=O)O`, the IC50 was 870 nM. To `O=C1/C(=C/c2cn(-c3ccccc3)nc2-c2ccc(OCc3ccc(Cl)cc3)cc2)SC(=S)N1CCS(=O)(=O)O` belongs 620 nM. Under `O=C1/C(=C/c2cn(-c3ccccc3)nc2-c2ccc(OCc3ccccc3)cc2)SC(=S)N1CCS(=O)(=O)O` stands 1500 nM; under `O=C1/C(=C/c2cn(-c3ccccc3)nc2-c2ccc(OCc3ccccc3Cl)cc2)SC(=S)N1CCS(=O)(=O)O`, 1200 nM.

As to `O=C1/C(=C/c2cn(-c3ccccc3)nc2-c2ccc(S(=O)(=O)N3CCCCC3)cc2)SC(=S)N1CCS(=O)(=O)O`, the IC50 is 2400 nM.
